Results published in patent US10065990B2, “Cyclic peptide compound, and preparation method, pharmaceutical composition and use thereof” (HANGZHOU GUANYU BIO-MEDICAL CO., LTD, priority 2013, dated 2018).
Where two headings read alike, the source gives them in different places.

What was measured:
HDAC1 = HDAC1 (Homo sapiens, UniProt Q13547); experiment: HDAC biochemical activity measurement (fluorescent substrate deacetylation);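 further: fluorogenic acetyl-lysine substrate (20 µM) deacetylated by HDAC1, then developer releases fluorophore read at 360 nm excitation and 460 nm emission, inhibitor incubated 30 min at 37 °C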
HDAC2 = HDAC2 (Homo sapiens, UniProt Q92769); experiment: as above; details: 37° C. 30 minutes;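 further: HDAC2 enzyme with an acetyl-lysine fluorescent substrate, then developer added, fluorescence read at excitation 360 nm and emission 460 nm, inhibition measured across several compound concentrations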
[1] = system: A549 (human lung cancer cells); experiment: MTT cancer cell growth inhibition; type: cell-based; details: Homo sapiens, A549, 72 h, MTT, 72 hours incubation, read-out: GI50 A54
In short: (§1)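 Seed 1500 cells/well, incubate overnight. Add compound, 10^−5 to 10^−10 M final, n=3; culture 72 h, 37° C., 5% CO2. Add MTT, 4 h. Discard supernatant, dissolve in DMSO. Read 570 nm; calculate viability and GI50.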

[2] = system: BGC-823 (human gastric cancer cells); experiment: MTT cancer cell growth inhibition; type: cell-based; details: Homo sapiens, BGC-823, 72 h, MTT, 72 hours incubation, read-out: GI50 BG
In short: as §1

[3] = system: Bel-7402 (human hepatoma cells); experiment: MTT cancer cell growth inhibition; type: cell-based; details: Homo sapiens, Bel-7402, 72 h, MTT, 72 hours incubation, Bel-7402 cells; read-out: GI50 Bel-7402
In short: as §1

[4] = system: DU145 (human prostate cancer cells); experiment: MTT cancer cell growth inhibition; type: cell-based; details: Homo sapiens, DU-145, 72 h, MTT, 72 hours incubation, read-out: GI50 Du1
In short: as §1

[5] = system: H1975 (non-small cell lung adenocarcinoma); experiment: MTT cancer cell growth inhibition; type: cell-based; details: Homo sapiens, NCI-H1975, 72 h, MTT, 72 hours incubation, H1975 cells; read-out: GI50 H1975
In short: as §1

[6] = system: HCC827 (human non-small cell lung cancer cells); experiment: MTT cancer cell growth inhibition; type: cell-based; details: Homo sapiens, HCC827, 72 h, MTT, 72 hours incubation, HCC827 cells; read-out: GI50 HCC827
In short: as §1

[7] = system: HT1080 (human fibrosarcoma cells); experiment: MTT cancer cell growth inhibition; type: cell-based; details: Homo sapiens, HT-1080, 72 h, MTT, 72 hours incubation, read-out: GI50 HT1
In short: as §1

[8] = system: Hela (human cervical cancer cells); experiment: MTT cancer cell growth inhibition; type: cell-based; details: Homo sapiens, HeLa, 72 h, MTT, 72 hours incubation, read-out: GI50 Hela
In short: as §1

[9] = system: Huh-7 (human hepatoma cells); experiment: MTT cancer cell growth inhibition; type: cell-based; details: Homo sapiens, Huh-7, 72 h, MTT, 72 hours incubation, Huh-7 cells; read-out: GI50 Huh-7
In short: as §1

[10] = system: K562 (human leukemia cells); experiment: MTT cancer cell growth inhibition; type: cell-based; details: Homo sapiens, K562, 72 h, MTT, 72 hours incubation, K562 cells; read-out: GI50 K562
In short: as §1

[11] = system: KBM-5 (human chronic myelogenous leukemia); experiment: MTT cancer cell growth inhibition; type: cell-based; details: Homo sapiens, KBM5, 72 h, MTT, 72 hours incubation, KBM-5 cells; read-out: GI50 KBM-5
In short: as §1

[12] = system: KBM5-T315I (human chronic myelogenous leukemia); experiment: MTT cancer cell growth inhibition; type: cell-based; details: Homo sapiens, 72 h, MTT, 72 hours incubation, KBM5-T315I cells; read-out: GI50 KBM5-T315I
In short: as §1

[13] = system: MCF-7 (human breast cancer cells); experiment: MTT cancer cell growth inhibition; type: cell-based; details: Homo sapiens, MCF7, 72 h, 72 hours incubation, read-out: GI50 MCF
In short: as §1

[14] = system: MDA-MB-231 (breast cancer cells); experiment: MTT cancer cell growth inhibition; type: cell-based; details: Homo sapiens, MDA-MB-231, 72 h, read-out: GI50 MDA-MB-231, MTT, 72 hours incubation, MDA-MB-231 cells
In short: as §1

[15] = system: MOLT-4 (human acute lymphoblastic leukemia cells); experiment: MTT cancer cell growth inhibition; type: cell-based; details: Homo sapiens, MOLT-4, 72 h, MTT, 72 hours incubation, read-out: GI50 Mol
In short: as §1

[16] = system: N-87 (human gastric cancer cells); experiment: MTT cancer cell growth inhibition; type: cell-based; details: Homo sapiens, 72 h, MTT, 72 hours incubation, N-87 cells; read-out: GI50 N-87
In short: as §1

[17] = system: PANC-1 (Pac-1, human pancreatic cancer cells); experiment: MTT cancer cell growth inhibition; type: cell-based; details: Homo sapiens, PANC-1, 72 h, MTT, 72 hours incubation, read-out: GI50 PAN
In short: as §1

[18] = system: SGC-7901 (human gastric cancer cells); experiment: MTT cancer cell growth inhibition; type: cell-based; details: Homo sapiens, SGC-7901, 72 h, MTT, 72 hours incubation, SGC-7901 cells; read-out: GI50 SGC-7901
In short: as §1

[19] = system: U937 (human leukemia cells); experiment: MTT cancer cell growth inhibition; type: cell-based; details: Homo sapiens, U-937, 72 h, MTT, 72 hours incubation, read-out: GI50 U93
In short: as §1

[20] = system: lncap (prostate cancer cells); experiment: MTT cancer cell growth inhibition; type: cell-based; details: Homo sapiens, LNCaP, 72 h, MTT, 72 hours incubation, read-out: GI50 lnca
In short: as §1

HDAC3 = HDAC3 (Homo sapiens, UniProt O15379); experiment: HDAC biochemical activity measurement (fluorescent substrate deacetylation);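 further: fluorogenic acetyl-lysine substrate (20 µM) deacetylated by HDAC3, then developer added for 15 min at room temperature, release of fluorophore read at excitation 360 nm, emission 460 nm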
[21] = HDAC1, 37° C. 30 minutes, read-out: IC50 HDAC1

HDAC3, sequence (O15379 whole entry, species assumed): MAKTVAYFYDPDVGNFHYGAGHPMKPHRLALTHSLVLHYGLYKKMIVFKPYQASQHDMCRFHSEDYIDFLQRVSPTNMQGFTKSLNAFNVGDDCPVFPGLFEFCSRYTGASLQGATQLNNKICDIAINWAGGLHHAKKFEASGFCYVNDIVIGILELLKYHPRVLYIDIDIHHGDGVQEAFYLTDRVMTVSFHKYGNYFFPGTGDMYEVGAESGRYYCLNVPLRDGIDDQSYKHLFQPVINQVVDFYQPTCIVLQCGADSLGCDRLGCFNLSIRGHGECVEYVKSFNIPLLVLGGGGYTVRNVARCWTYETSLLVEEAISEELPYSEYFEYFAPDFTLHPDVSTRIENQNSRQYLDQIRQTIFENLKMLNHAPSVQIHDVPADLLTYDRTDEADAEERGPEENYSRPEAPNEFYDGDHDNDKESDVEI
HDAC3, sequence (Q9Y618 395-489 partner limits assumed, species assumed): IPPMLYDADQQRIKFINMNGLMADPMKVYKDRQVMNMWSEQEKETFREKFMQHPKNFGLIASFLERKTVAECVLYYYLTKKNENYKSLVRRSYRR
HDAC1, sequence (Q13547 whole entry, species assumed): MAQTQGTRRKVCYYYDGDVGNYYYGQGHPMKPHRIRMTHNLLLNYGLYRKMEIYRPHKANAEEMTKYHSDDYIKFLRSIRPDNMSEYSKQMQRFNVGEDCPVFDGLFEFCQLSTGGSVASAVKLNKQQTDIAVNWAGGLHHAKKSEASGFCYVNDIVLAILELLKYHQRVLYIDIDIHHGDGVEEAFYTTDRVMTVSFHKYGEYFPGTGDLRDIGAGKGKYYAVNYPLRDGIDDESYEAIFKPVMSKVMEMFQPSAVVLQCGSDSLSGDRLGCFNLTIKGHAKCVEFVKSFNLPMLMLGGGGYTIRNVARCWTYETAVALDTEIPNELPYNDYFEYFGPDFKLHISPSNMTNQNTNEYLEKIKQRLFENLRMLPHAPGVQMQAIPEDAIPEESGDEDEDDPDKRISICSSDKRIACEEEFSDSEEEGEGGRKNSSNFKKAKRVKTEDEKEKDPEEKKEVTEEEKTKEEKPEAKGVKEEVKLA
HDAC2, sequence (Q92769 whole entry, species assumed): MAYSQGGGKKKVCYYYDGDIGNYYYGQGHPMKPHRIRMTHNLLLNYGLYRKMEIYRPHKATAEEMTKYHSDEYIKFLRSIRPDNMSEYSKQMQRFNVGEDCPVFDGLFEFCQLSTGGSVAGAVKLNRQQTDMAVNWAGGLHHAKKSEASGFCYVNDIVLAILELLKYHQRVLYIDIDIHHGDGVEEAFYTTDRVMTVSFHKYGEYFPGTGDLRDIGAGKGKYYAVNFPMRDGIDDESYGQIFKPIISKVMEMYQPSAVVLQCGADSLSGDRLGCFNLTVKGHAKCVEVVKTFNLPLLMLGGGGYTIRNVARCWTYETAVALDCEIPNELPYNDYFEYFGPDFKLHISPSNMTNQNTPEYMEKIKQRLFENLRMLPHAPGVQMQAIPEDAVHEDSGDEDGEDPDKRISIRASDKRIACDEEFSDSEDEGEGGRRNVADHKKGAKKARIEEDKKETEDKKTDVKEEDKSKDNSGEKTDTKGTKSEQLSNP

| IC50 (HDAC1; [21]) | IC50 (HDAC2) | GI50 [3] | GI50 [5] | GI50 [6] | GI50 [9] | GI50 [10] | GI50 [11] | GI50 [12] | GI50 [14] | GI50 [16] | GI50 [18] | GI50 ([1]; A549 cells) | GI50 ([2]; BGC-823 cells) | GI50 ([4]; DU145 cells) | GI50 ([7]; HT1080 cells) | GI50 ([8]; Hela cells) | GI50 ([13]; MCF-7 cells) | GI50 ([15]; MOLT-4 cells) | GI50 ([17]; PANC-1 cells) | SMILES | further results |
| --- | --- | --- | --- | --- | --- | --- | --- | --- | --- | --- | --- | --- | --- | --- | --- | --- | --- | --- | --- | --- | --- |
| 51 nM | 36 nM | 72 nM | 34 nM | 72 nM | 26 nM | 17 nM | 94 nM | 34 nM | 26 nM | 32 nM | 51 nM | – | – | – | – | – | – | – | – | C/C=C1\NC(=O)c2cc(F)cc(n2)CNC(=O)C[C@@H](/C=C/CCSC(C)=O)OC(=O)[C@H](CCCCNC(=O)OCC2c3ccccc3-c3ccccc32)NC1=O [Compound 76] | IC50 (HDAC1; Table 3, column C, read-out: IC50 HDAC1, C (six-membered ring with substituents)): 51 nM; GI50 [1]: 50 nM; GI50 [2]: 30 nM; GI50 [4]: 10 nM; GI50 [7]: 70 nM; GI50 [8]: 90 nM; GI50 [13]: 30 nM; GI50 [15]: 20 nM; GI50 [17]: 70 nM; GI50 [19]: 30 nM; GI50 [20]: 20 nM; IC50 (HDAC3; read-out: IC50 HDAC3, HDAC3, 37° C. 30 minutes): 42 nM |
| 43 nM | 25 nM | 35 nM | 11 nM | 18 nM | 33 nM | 35 nM | 31 nM | 41 nM | 43 nM | 23 nM | 73 nM | 40 nM | 30 nM | 30 nM | 10 nM | 430 nM | 70 nM | 40 nM | 80 nM | C/C=C1\NC(=O)c2cc(SC)cc(n2)CNC(=O)C[C@@H](/C=C/CCSC(C)=O)OC(=O)[C@H](CCCCN)NC1=O [Compound 193] | GI50 ([19]; U937 cells): 50 nM; GI50 ([20]; lncap cells): 80 nM; IC50 (HDAC3): 39 nM |
| 91 nM | 41 nM | 44 nM | 66 nM | 35 nM | 56 nM | 34 nM | 22 nM | 36 nM | 12 nM | 94 nM | 34 nM | 80 nM | 10 nM | 50 nM | 130 nM | 50 nM | 60 nM | 100 nM | 60 nM | C/C=C1\NC(=O)c2nc(ccc2SC)CNC(=O)C[C@@H](/C=C/CCSC=O)OC(=O)[C@H](C(C)C)NC1=O [Compound 168] | GI50 ([19]; U937 cells): 40 nM; GI50 ([20]; lncap cells): 20 nM; IC50 (HDAC3): 34 nM |
